In ChEMBL document CHEMBL1201862, “PubChem BioAssay data set” (2004):
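Values below derive from 48-hour exposures of cells grown in 96-well plates, with endpoints linearly interpolated between the two concentrations bracketing the appropriate inhibition level. Abbreviation: GI50, concentration required for 50% inhibition of growth.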 The source made the active and inactive calls. Cut-off read from the data, not from the text of the source: active = GI50 up to about 1.1 µM and inactive = higher.

Tests used:
Assay in all cases: NCI tumour cell line growth inhibition, 48 h
HOP-62 = tested on: HOP-62
UO-31 = tested on: UO-31
KM12 = tested on: KM12
OVCAR-4 = tested on: OVCAR-4
DMS-273 = tested on: DMS-273
OVCAR-5 = tested on: OVCAR-5
SK-MEL-2 = tested on: SK-MEL-2
HT-29 = tested on: HT-29
SF-539 = tested on: SF-539
SF-268 = tested on: SF-268
KM-20L2 = tested on: KM-20L2
SNB-19 = tested on: SNB-19
SW-620 = tested on: SW-620
IGROV-1 = tested on: IGROV-1
Malme-3M = tested on: Malme-3M
NCI-H460 = tested on: NCI-H460
OVCAR-8 = tested on: OVCAR-8
OVCAR-3 = tested on: OVCAR-3
SK-MEL-5 = tested on: SK-MEL-5
M19-MEL = tested on: M19-MEL

Measured: GI50

COc1cc(/C=C(\C#N)C(N)=O)cc(Br)c1O
inactive: HOP-62 92.3 µM | UO-31 96.6 µM | KM12 > 100 µM | OVCAR-4 > 100 µM | DMS-273 > 100 µM | OVCAR-5 > 100 µM | SK-MEL-2 > 100 µM | HT-29 > 100 µM | SF-539 > 100 µM | SF-268 > 100 µM | KM-20L2 > 100 µM | SNB-19 > 100 µM | SW-620 > 100 µM | IGROV-1 > 100 µM | Malme-3M > 100 µM | NCI-H460 > 100 µM | OVCAR-8 > 100 µM | OVCAR-3 > 100 µM | SK-MEL-5 > 100 µM | M19-MEL > 100 µM

CC1SC(c2ccccc2)N(Nc2c3ccccc3nc3ccccc23)C1=O (stereo not given)
inactive: HOP-62 > 100 µM | UO-31 20.4 µM | KM12 71.4 µM | OVCAR-4 > 100 µM | DMS-273 > 100 µM | OVCAR-5 78.7 µM | SK-MEL-2 > 100 µM | HT-29 > 100 µM | SF-539 > 100 µM | SF-268 > 100 µM | KM-20L2 > 100 µM | SNB-19 > 100 µM | SW-620 > 100 µM | IGROV-1 27 µM | Malme-3M > 100 µM | NCI-H460 > 100 µM | OVCAR-8 74.1 µM | OVCAR-3 > 100 µM | SK-MEL-5 38.4 µM | M19-MEL > 100 µM

CCCCCCCCCCCCCCCCCC(=O)OCC1OC(OC)C(NC(=O)N(CCCl)N=O)C(O)C1O (stereo not given)
inactive: HOP-62 > 100 µM | UO-31 24.3 µM | KM12 24.8 µM | OVCAR-4 24 µM | DMS-273 16 µM | OVCAR-5 44.2 µM | SK-MEL-2 45.9 µM | HT-29 20.9 µM | SF-539 9.86 µM | SF-268 8.3 µM | KM-20L2 > 10 µM | SNB-19 24.9 µM | SW-620 14.1 µM | IGROV-1 32.5 µM | Malme-3M 26.1 µM | NCI-H460 5.96 µM | OVCAR-8 33.5 µM | OVCAR-3 26.9 µM | SK-MEL-5 26.3 µM | M19-MEL 71.4 µM
